Non-standard residues stand in square brackets, D forms with d. Primed or numbered codes have the meaning given here. No end group written: not given here. *: point of attachment. FITC = O=C1OC2(c3ccc(O)cc3Oc3cc(O)ccc32)c2ccc(NC(=S)*)cc21; PEG4′ = not defined here; PEG5′ = not defined here; Ahx = NCCCCCC(=O)O
What was measured:
HT-1080 cells tumor = experiment: Delivery test on anticancer agent in tumor-bearing mice; type: in vivo, BALB/c nude mouse
Experimental: HT-1080 cells (1×10^7 cells/200 μL) were subcutaneously implanted into the back of 5 week-old BALB/c nude mouse (CHARLES RIVER LABORATORIES JAPAN, INC.). A tumor after the implantation was confirmed to reach 30 to 60 mm^3, and then they were subjected to the following tests.
Example 2 was dissolved in the sterile water and adjusted to be 200 μg/200 μL by the addition of 2-time concentrated α-MEM (not containing glutamine or an antibiotic). It was intraperitoneally administered to tumor-bearing mice at 10 mg/kg every 3 days. In the control administration group, 200 μL of 1-time concentrated α-MEM was intraperitoneally administered to tumor-bearing mice every 3 days. The mice were weighed on DRETEC weighing scale (DRETEC CO., Ltd., Japan) and the tumor size (estimation volume (shortest diameter×longer diameter×height×pi/6 mm^3)) was measured with a vernier caliper (maximum: 150 mm, minimum: 0.05 mm) (MITUTOYO, Japan) every 3 days.
Example 3 and Comparative Example 4 (Dox) were treated to be at 5 or 1.2 mg/kg, respectively in the same manner as that of Example 2, and administered to the tumor-bearing mice. The tumor size was measured by the same procedure as above.
FIG. 7 is a graph illustrating transitions of tumor size in the control (N=2), Comparative Example 4(N=2) and Example 3 administration group (N=2). The vertical axis represents the average value of tumor size±standard deviation (SD) and the horizontal axis represents the days after administration. […] The tumor size day 24 grew to about 2,000 mm^3 in the control and Comparative Example 4 administration group. […] That is, the tumors largely shrank due to not only anticancer effect of the peptide itself but also the effect of the anticancer agent. The peptides of the present invention specifically act on the target cells compared with the single administration of the anticancer agent and have high toxicity against the cancer cells.

HT-1080 cells [1] = experiment: Test of inducing cell-death in vitro (Calcein-AM/PI dead cell rate); type: cell-based, human; details: 9th day
From the text: Human fibrosarcoma-derived HT-1080 cells (HT-1080 cells, JCRB cell bank) were used as cancer cells in the test for monitoring changes in mitochondrial membrane potential. HT-1080 cells, human osteosarcoma cell line Hos cells (Hos cells, JCRB cell bank), human histiocytic lymphoma/macrophage U937 cells (U937 cells, JCRB cell bank), human myeloid leukemia HL-60 cells (HL-60 cells, JCRB cell bank), acute monocytic leukemia THP-1 cells (THP-1 cells, JCRB cell bank), human alveolar basal epithelial adenocarcinoma cell A549 cells (A549 cells, Cell Resource Center for Biomedical Research, Institute of Development, Aging and Cancer, Tohoku University), human pancreatic carcinoma cells (MIA Paca 2 cells, Cell Resource Center for Biomedical Research, Institute of Development, Aging and Cancer, Tohoku University) and well differentiated human liver carcinoma-derived cell line HuH7 cells (HuH7 cells, Cell Resource Center for Biomedical Research, Institute of Development, Aging and Cancer, Tohoku University) were used as cancer cells in an in vitro cell-death induction test of cancer cells and a nuclear transport test of Example 2. Normal human gingival fibroblast cells Gin-1 (Gin-1 cells, DS Pharma Biomedical) were used as a control. The above-described cells were each inoculated into a 96-well culture plate (Falcon) at 5,000 cells/[…] and subjected to the following tests.
The peptide of SEQ ID NO: 1 labeled with FITC (Example 2) was used for the test of inducing cell-death in vitro in cancer cells. It was prepared the test example to which 100 μL of Example 2 and further 10% FBS were added and cultured for 9 days under conditions of 200 μL of serum-supplemented medium (Alpha modification of Eagle's MEM (α-MEM) (Thermo Fisher Scientific)+10% FBS). Furthermore, it was also produced the test example that was cultured for 21 days with the whole amount of Example 2-supplemented medium replaced every 7 days. As a control, the cells were cultured in a serum-supplemented medium (α-MEM+10% FBS) without addition and were used. A supernatant was removed after the completion of the culture. The cells were washed once with PBS and stained in PBS to which a fluorescent dye for living cell staining Calcein-AM (DOJINDO LABORATORIES) (final concentration: 0.1 μg/mL) and a fluorescent dye for dead cell staining Propidium Iodide (PI) (DOJINDO LABORATORIES) (final concentration: 0.3 μg/mL) were added, at 37° C. in a 5% CO2 cell incubator for 30 minutes. The living cells and dead cells were separately stained with Calcein-AM and PI, respectively and imaged with the confocal laser scanning microscope LSM800. Next, the dead cell rate relative to the number of total cells was analyzed using ImageJ.
The results are represented by the average value of the dead cell rate (the number red cells stained with IP/the number of total cells×100(%))±standard deviation (SD). In FIG. 2A, the vertical axis represents the rate of cell death when each cell was cultured with Example 2 (50 μg/mL) for 9 days and the horizontal axis represents various types of cells. The increase in the dead cell rate of the Gin-1 cells was not observed.
The concentrations of Examples 2 and 4 to 6 were adjusted to 12.5, 25, 50 and 100 μg/mL, respectively and then administrated to the HT-1080 cells for 9 days tested by the same method as in Test Example 2A. The cell staining and subsequent analyses of the dead cell rate relative to the number of total cells were performed in the same manner as Test Example 2A.

HT-1080 cells [2] = experiment: Test of monitoring changes in mitochondrial membrane potential (JC-1 apoptosis rate); type: cell-based, human; details: 7 days, Example 1 at 25, 50 and 100 μg/mL, Comparative Examples at 50 and 100 μg/mL
Experimental: (§1) Human fibrosarcoma-derived HT-1080 cells (HT-1080 cells, JCRB cell bank) were used as cancer cells in the test for monitoring changes in mitochondrial membrane potential. […]
(§2) The synthetic peptide of Example 1 or Comparative Examples 1 to 3 was individually added to the HT-1080 cells, and the cells were cultured in a serum-supplemented medium (α-MEM+10% FBS). […] Further, the cells were washed once with PBS followed by the addition of 100 μL of PBS, scanned with a confocal laser scanning microscope LSM800 (Zeiss) and then analyzed with ImageJ. […]

Gin-1 cells = experiment: Test of monitoring changes in mitochondrial membrane potential (JC-1 apoptosis rate), normal cells; type: cell-based, human; details: 50 μg/mL
Experimental: as §1, §2

## COc1cccc2c1C(=O)c1c(O)c3c(c(O)c1C2=O)C[C@@](O)(C(=O)CO)C[C@@H]3O[C@H]1C[C@H](N)[C@H](O)[C@H](C)O1 [Comparative Example 4, Doxorubicin, reference compound]
HT-1080 cells tumor; 1.2 mg/kg, day 24, N=2
  tumor size: about 2,000 mm^3

## Example 3 ({doxorubicin-PEG5′-DBCO‑azide-PEG4′}-KDNRGNLLQCVCTGNGRGEWKC; cysteine pairing not given here)
HT-1080 cells tumor; 5 mg/kg, between days 18 and 24, N=2
  suppression of tumor proliferation compared with the control and Comparative Example 4 administration group: significant difference at the level of 1%
HT-1080 cells tumor; 5 mg/kg, to the day 24
  suppression effect on tumor: suppression effect was confirmed

## Example 5: peptide of SEQ ID NO: 2 labeled with FITC via an Ahx linker at the N-terminus ({FITC}-[Ahx]KDNRGNLLQCICTGNGRGEWKC; cysteine pairing not given here)
HT-1080 cells [1]; 50 or 100 μg/mL
  dead cell rate: ≥ 50%

## Example 6: peptide of SEQ ID NO: 6 labeled with FITC via an Ahx linker at the N-terminus ({FITC}-[Ahx]KHGLYNLKQCKMSLNGQRGECWC; cysteine pairing not given here)
HT-1080 cells [1]; 12.5 μg/mL substantially same as 100 μg/mL
  dead cell rate: about 35%

## KDNRGNLLQCVCTGNGRGEWKC (This is derived from a part of CD ligand.; BINDING (3)..(6); BINDING (13)..(17)) [Example 1]
HT-1080 cells [2]
  increase in apoptosis rate (number of green cell dyed with JC1/number of total cells): increase in apoptosis rate of the HT-1080 cells was confirmed
Gin-1 cells
  increase in apoptosis rate: not observed
